According to patent US20230293526A1, “METHOD FOR TREATING CANCER WITH A REVERSE TRANSCRIPTASE INHIBITOR” (PrimeFour Therapeutics, Inc., priority 2020, published 2023):
pIC50: −log10 of the molar value.

Columns and labels:
cancer cell lines = experiment: Cancer cell proliferation activity of representative nucleosides, CellTiterGlo 72 h (Example 7, Tables 8 and 9); assay type: cell-based; settings: 72 h
Procedure, shortened: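 Percent viability was set against 0.1% DMSO (100%) and 10 μM staurosporine (0%), with signal from CellTiterGlo luminescence. Dose-response treatment began one day after seeding and lasted 72 h at 37° C under 5% or 10% CO2, with 0.1% final DMSO.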

human LINE-1 = experiment: Human LINE-1 (L1) retrotransposition dual-luciferase reporter assay in HeLa cells; assay type: cell-based; settings: Homo sapiens, HeLa, 72 h, read-out: Human LINE-1 IC50 (Human L1 activity inhibition)
Procedure, shortened: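 Compound dilution series (final DMSO 0.2%) added right after transfecting HeLa cells with the pYX017 L1 dual-luciferase reporter; 72 h culture at 37 °C, 5% CO2, triplicates. IC50 fitted by non-linear logistic regression to firefly-to-Renilla luminescence ratio (×10,000).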

C#C[C@]1(CO)O[C@@H](n2cc(F)c(=O)[nH]c2=O)C[C@@H]1O [compound 15]
pIC50 (cancer cell lines; 72 h, 5637, bladder): 6.43 | pIC50 (cancer cell lines; CLS439, bladder): < 4.30 | pIC50 (cancer cell lines; HS729, muscle): < 4.30 | pIC50 (cancer cell lines; J82, bladder): < 4.30 | pIC50 (cancer cell lines; JAR, placenta): < 4.30 | pIC50 (cancer cell lines; MT3, breast): < 4.30 | pIC50 (cancer cell lines; PC3, prostate): < 4.30 | pIC50 (cancer cell lines; RD, muscle): < 4.30 | pIC50 (cancer cell lines; T24, bladder): < 4.30 | pIC50 (cancer cell lines; Homo sapiens, 22Rv1, 72 h, 22RV1, prostate): 5.43 | pIC50 (cancer cell lines; Homo sapiens, 786-0, 72 h, 786O, kidney): < 4.30 | pIC50 (cancer cell lines; Homo sapiens, A204, 72 h, A204, muscle): < 4.30 | pIC50 (cancer cell lines; Homo sapiens, A549, 72 h, A549, lung): < 4.30 | pIC50 (cancer cell lines; Homo sapiens, A673, 72 h, A673, bone): < 4.30 | pIC50 (cancer cell lines; Homo sapiens, A2780, 72 h, A2780, ovary): < 4.30 | pIC50 (cancer cell lines; Homo sapiens, A-375, 72 h, A375, skin): < 4.30 | pIC50 (cancer cell lines; Homo sapiens, A-431, 72 h, A431, skin): 5.85 | pIC50 (cancer cell lines; Homo sapiens, ACHN, kidney): 6.03 | pIC50 (cancer cell lines; Homo sapiens, ASPC1, 72 h, ASPC1, pancreas): 6.31 | pIC50 (cancer cell lines; Homo sapiens, BT-20, 72 h, BT20, breast): < 4.30 | pIC50 (cancer cell lines; Homo sapiens, BXPC-3, 72 h, BXPC3, pancreas): 6.23 | pIC50 (cancer cell lines; Homo sapiens, C-33-A, C33A, endometrial): 5.51 | pIC50 (cancer cell lines; Homo sapiens, CAKI-1, 72 h, CAKI1, kidney): < 4.30 | pIC50 (cancer cell lines; Homo sapiens, COLO 205, 72 h, COLO205, colon): 6.06 | pIC50 (cancer cell lines; Homo sapiens, COLO-678, 72 h, COLO678, colon): < 4.30 | pIC50 (cancer cell lines; Homo sapiens, Ca-Ski, CASKI, endometrial): < 4.30 | pIC50 (cancer cell lines; Homo sapiens, Caco-2, 72 h, CACO2, colon): < 4.30 | pIC50 (cancer cell lines; Homo sapiens, Calu-6, 72 h, CALU6, lung): < 4.30 | pIC50 (cancer cell lines; Homo sapiens, DLD-1, 72 h, DLD1, colon): < 4.30 | pIC50 (cancer cell lines; Homo sapiens, DU-145, 72 h, DU145, prostate): < 4.30 | pIC50 (cancer cell lines; Homo sapiens, EFO-21, 72 h, EFO21, ovary): < 4.30 | pIC50 (cancer cell lines; Homo sapiens, EJ-28, 72 h, EJ28, bladder): < 4.30 | pIC50 (cancer cell lines; Homo sapiens, Granta-519, 72 h, GRANTA-519, hematological): 6.46 | pIC50 (cancer cell lines; Homo sapiens, HCT-15, 72 h, HCT15, colon): < 4.30 | pIC50 (cancer cell lines; Homo sapiens, HCT-116, 72 h, HCT116, colon): < 4.30 | pIC50 (cancer cell lines; Homo sapiens, HEK293, 72 h, HEK293, kidney): < 4.30 | pIC50 (cancer cell lines; Homo sapiens, HL-60, 72 h, HL-60, hematological): < 4.30 | pIC50 (cancer cell lines; Homo sapiens, HT-29, 72 h, HT29, colon): < 4.30 | pIC50 (cancer cell lines; Homo sapiens, HT-1080, 72 h, HT1080, connective tissue): < 4.30 | pIC50 (cancer cell lines; Homo sapiens, HeLa, endometrial): < 4.30 | pIC50 (cancer cell lines; Homo sapiens, HepG2, 72 h, HEPG2, liver): < 4.30 | pIC50 (cancer cell lines; Homo sapiens, Hs-578T, HS578T, breast): < 4.30 | pIC50 (cancer cell lines; Homo sapiens, IGROV-1, 72 h, IGROV1, ovary): < 4.30 | pIC50 (cancer cell lines; Homo sapiens, IMR-90, 72 h, IMR90, lung): < 4.30 | pIC50 (cancer cell lines; Homo sapiens, JEG-3, 72 h, JEG3, placenta): < 4.30 | pIC50 (cancer cell lines; Homo sapiens, JIMT-1, 72 h, JIMT1, breast): < 4.30 | pIC50 (cancer cell lines; Homo sapiens, K562, 72 h, K-562, hematological): < 4.30 | pIC50 (cancer cell lines; Homo sapiens, Kasumi 1, 72 h, KASUMI-1, hematological): < 4.30 | pIC50 (cancer cell lines; Homo sapiens, L-363, 72 h, L-363, hematological): < 4.30 | pIC50 (cancer cell lines; Homo sapiens, LoVo, colon): 5.69 | pIC50 (cancer cell lines; Homo sapiens, MCF7, 72 h, MCF7, breast): < 4.30 | pIC50 (cancer cell lines; Homo sapiens, MDA-MB-231, 72 h, MDAMB231, breast): < 4.30 | pIC50 (cancer cell lines; Homo sapiens, MDA-MB-435, 72 h, MDAMB435, skin): < 4.30 | pIC50 (cancer cell lines; Homo sapiens, MDA-MB-436, 72 h, MDAMB436, breast): < 4.30 | pIC50 (cancer cell lines; Homo sapiens, MDA-MB-468, 72 h, MDAMB468, breast): < 4.30 | pIC50 (cancer cell lines; Homo sapiens, MG-63, 72 h, MG63, bone): < 4.30 | pIC50 (cancer cell lines; Homo sapiens, MHH-ES-1, 72 h, MHHES1, bone): < 4.30 | pIC50 (cancer cell lines; Homo sapiens, MIA PaCa-2, 72 h, MIAPACA2, pancreas): < 4.30 | pIC50 (cancer cell lines; Homo sapiens, MINO, hematological): 7.22 | pIC50 (cancer cell lines; Homo sapiens, MV4-11, 72 h, MV4-11, hematological): 5.76 | pIC50 (cancer cell lines; Homo sapiens, NCI-H23, 72 h, NCI-H23, lung): < 4.30 | pIC50 (cancer cell lines; Homo sapiens, NCI-H82, 72 h, NCIH82, lung): < 4.30 | pIC50 (cancer cell lines; Homo sapiens, NCI-H292, 72 h, NCIH292, lung): < 4.30 | pIC50 (cancer cell lines; Homo sapiens, NCI-H460, 72 h, NCIH460, ung): < 4.30 | pIC50 (cancer cell lines; Homo sapiens, OVCAR-3, 72 h, OVCAR3, ovary): < 4.30 | pIC50 (cancer cell lines; Homo sapiens, OVCAR-4, 72 h, OVCAR4, ovary): < 4.30 | pIC50 (cancer cell lines; Homo sapiens, PANC-1, 72 h, PANC1, pancreas): < 4.30 | pIC50 (cancer cell lines; Homo sapiens, PLC-PRF-5, 72 h, PLCPRF5, liver): < 4.30 | pIC50 (cancer cell lines; Homo sapiens, Panc1005, 72 h, PANC1005, pancreas): < 4.30 | pIC50 (cancer cell lines; Homo sapiens, Ramos, hematological): 5.93 | pIC50 (cancer cell lines; Homo sapiens, SAOS-2, 72 h, SAOS2, bone): < 4.30 | pIC50 (cancer cell lines; Homo sapiens, SF-268, 72 h, SF268, brain): < 4.30 | pIC50 (cancer cell lines; Homo sapiens, SF-295, 72 h, SF295, brain): < 4.30 | pIC50 (cancer cell lines; Homo sapiens, SK-BR-3, 72 h, SKBR3, breast): 6.43 | pIC50 (cancer cell lines; Homo sapiens, SK-HEP1, 72 h, SKHEP1, liver): < 4.30 | pIC50 (cancer cell lines; Homo sapiens, SK-LMS-1, 72 h, SKLMS1, uterus): < 4.30 | pIC50 (cancer cell lines; Homo sapiens, SK-MEL-5, 72 h, SKMEL5, skin): < 4.30 | pIC50 (cancer cell lines; Homo sapiens, SK-MEL-28, 72 h, SKMEL28, skin): < 4.30 | pIC50 (cancer cell lines; Homo sapiens, SK-N-AS, SKNAS, brain): < 4.30 | pIC50 (cancer cell lines; Homo sapiens, SK-N-SH, SKNSH, brain): < 4.30 | pIC50 (cancer cell lines; Homo sapiens, SK-OV-3, 72 h, SKOV3, ovary): < 4.30 | pIC50 (cancer cell lines; Homo sapiens, SNB-75, 72 h, SNB75, brain): < 4.30 | pIC50 (cancer cell lines; Homo sapiens, SU-DHL10, 72 h, SU-DHL-10, hematological): 5.41 | pIC50 (cancer cell lines; Homo sapiens, SU-DHL-6, 72 h, SU-DHL-6, hematological): 5.89 | pIC50 (cancer cell lines; Homo sapiens, SW-620, 72 h, SW620, colon): < 4.30 | pIC50 (cancer cell lines; Homo sapiens, TE-671, 72 h, TE671, muscle): < 4.30 | pIC50 (cancer cell lines; Homo sapiens, THP-1, 72 h, THP-1, hematological): < 4.30 | pIC50 (cancer cell lines; Homo sapiens, U2OS, bone): < 4.30 | pIC50 (cancer cell lines; Homo sapiens, U-87 MG, U87MG, brain): < 4.30 | pIC50 (cancer cell lines; Homo sapiens, UMUC3, 72 h, UMUC3, bladder): < 4.30 | pIC50 (cancer cell lines; Homo sapiens, UO-31, 72 h, UO31, kidney): < 4.30 | pIC50 (cancer cell lines; Homo sapiens, WSU-NHL, hematological): 6.06 | pIC50 (cancer cell lines; NCI-H358M, NCIH358M, lung): 6.17 | pIC50 (cancer cell lines; PBMC, hematological): < 4.30 | pIC50 (cancer cell lines; RD-ES, RDES, bone): < 4.30 | pIC50 (human LINE-1): 6.08
